From patent publication US6518315B1, “Medicinal uses of phenylaikanols and derivatives” (The University of Sydney, priority 1997, dated 2003)

Legend:
rat mesenteric artery = assay: Vasodilation on rat mesenteric artery; details: for potency in relaxing rat mesenteric artery / vascular bed, in words: preliminary investigation
Text: The proposed mechanism of neuropeptide release by 1-(4-hydroxy-3-methoxyphenyl)dodecan-3-ol, similar to that of capsaicin, was supported by studies in blood vessels. […] This contrasts with capsaicin which has similar activity in Guinea pig atria (force and rate) and relaxing rat mesenteric artery.

guinea pig atria = assay: Organ bath assay, isolated guinea pig atria (rate and force of contraction)
Procedure: Male guinea pigs, 3-4 weeks old, were killed by rapid cervical dislocation without induced anaesthesia. Then, the guinea pigs were dissected to isolate the atria which were immediately mounted vertically in an organ bath containing Krebs-Henseleit solution oxygenated with carbogen.
One gram tension was applied to the atria and the base line continuously adjusted until it was stable for 20 mins. The rate and force of contraction were recorded using Mac Lab equipment.
Test substances in DMSO were assayed to a maximum concentration of 50 μM at a final concentration of 2.5% of DMSO.

[1] = system: capsaicin-sensitive DRG neuronal cells; assay: [Ca^2+]i transients in DRG neuronal cells in culture; type: cell-based, rat; details: for Peak [Ca^2+]i (Average ± SD): 10 μM applied for 1 min, 2 mM Ca^2+
Text: Effect of Gingerol Analogues Towards Rat Dorsal Root Ganglia
Capsaicin, the pungent component in peppers of the Capsicum genus, family Solanaceae, has the ability to excite a subset of sensory neurons, which include polymodal nociceptors and warm thermoceptors (Fitzgerald, 1983) by opening non-selective cation channels that are permeable to Na^+, K^+, and Ca^2+ (Bevan and Szolcsanyi, 1990). It has been shown that capsaicin evoked a concentration-dependent rise in [Ca^2+]i in cultured dorsal root ganglion neurons. The duration of the elevation of [Ca^2+]i depended on the concentration of capsaicin (Choleswinski, et al., 1993). In this investigation peak [Ca^2+]i transient measurements are used as a model for testing gingerol analogues.
DRG from neonatal (3-5 days old) rat or adult Sprague-Dawley rats were incubated in Hanks CMF saline with 0.05% collagenase and 0.25% trypsin for 25 min at 37° C. Individual cells were obtained by trituration with fire polished Pasteur pipettes of diminishing diameters. Neurones were isolated from the cell suspension in 30% Percoll and then plated on collagen coated coverslips or in 24-well plates, then cultured in neurobasal medium with B27 supplement, 50 ng/ml 2.5 S nerve growth factor, 2 mM 1-glutamine and 100 U/ml penicillin/streptomycin. Cultures were maintained at 37° C. with 5% CO2. 30% Percoll increases the percentage of capsaicin-sensitive DRG neurones up to 70%. For peak [Ca^2+]i transients measurements, cells on coverslips were incubated with 5 μM Fura-2 AM for 30 min at 37° C. The coverslips were then mounted on a chamber attached to a fast sample application perfusion system which allows changing solutions in the second range. Recordings were made on the stage of a Nikon Diaphot inverted microscope fitted with a Nikon 40×Fluo (NA 0.85) DL Ph3 or 40×Fluo (NA 1.3) oil objective. [Ca^2+]i was calculated from dual excitation wavelength (340/380 nm) fluorescence measurements following an intracellular calibration procedure by the Grynkiewicz equation, using MCID M2/M4 v.3.0 (Imaging Res. Inc.) software. Cells were continuously perfused with a solution consisting of 140 mM NaCl, 2 mM CaCl2, 5 mM KCl, 20 mM HEPES, 10 mM glucose, pH 7.4. To study KCl evoked depolarisation, 50 mM NaCl was replaced by equimolar KCl. Cytoplasmic localisation of Fura-2 was tested with the Mn^2+ quenching technique (Dedov and Roufogalis, 1998). All experiments were performed at room temperature (20-23° C.).
Typical changes in [Ca^2+]i upon depolarisation were evoked by 50 mM KCl and by application of 1 μM capsaicin; both were applied for 30 sec. Capsaicin-evoked peak [Ca^2+]i transients are characterised by a fast rise and long-steady state [Ca^2+]i clearance from the cytoplasm. In capsaicin-sensitive cells the half-time of cytoplasmic Ca^2+ clearance was proportional to the amplitudes of peak [Ca^2+]i transients.
To examine the effect of gingerol derivatives, one or several compounds in succession at a concentration of 10 μM were applied for 1 min to the DRG neuronal cells followed by washing out for 4 min with physiological solution. To the capsaicin-sensitive cells, 10 μM capsaicin and 50 mM KCl were applied, respectively, to confirm the viability of the cells. In addition, morphological appearances of the cells were also examined at the end of experiment. […]

[2] = target: T1, Ca^2+-ATPase of dog cardiac SR (Canis lupus familiaris, UniProt O46674); assay: Sarcoplasmic reticulum Ca^2+-ATPase assay; type: biochemical; details: 0 μM = 100
T1 construct: SR membrane (75 μg/ml): 24 μl; from tissue; host or cells: dog cardiac sarcoplasmic reticulum membranes
T1 sequence (O46674 whole entry): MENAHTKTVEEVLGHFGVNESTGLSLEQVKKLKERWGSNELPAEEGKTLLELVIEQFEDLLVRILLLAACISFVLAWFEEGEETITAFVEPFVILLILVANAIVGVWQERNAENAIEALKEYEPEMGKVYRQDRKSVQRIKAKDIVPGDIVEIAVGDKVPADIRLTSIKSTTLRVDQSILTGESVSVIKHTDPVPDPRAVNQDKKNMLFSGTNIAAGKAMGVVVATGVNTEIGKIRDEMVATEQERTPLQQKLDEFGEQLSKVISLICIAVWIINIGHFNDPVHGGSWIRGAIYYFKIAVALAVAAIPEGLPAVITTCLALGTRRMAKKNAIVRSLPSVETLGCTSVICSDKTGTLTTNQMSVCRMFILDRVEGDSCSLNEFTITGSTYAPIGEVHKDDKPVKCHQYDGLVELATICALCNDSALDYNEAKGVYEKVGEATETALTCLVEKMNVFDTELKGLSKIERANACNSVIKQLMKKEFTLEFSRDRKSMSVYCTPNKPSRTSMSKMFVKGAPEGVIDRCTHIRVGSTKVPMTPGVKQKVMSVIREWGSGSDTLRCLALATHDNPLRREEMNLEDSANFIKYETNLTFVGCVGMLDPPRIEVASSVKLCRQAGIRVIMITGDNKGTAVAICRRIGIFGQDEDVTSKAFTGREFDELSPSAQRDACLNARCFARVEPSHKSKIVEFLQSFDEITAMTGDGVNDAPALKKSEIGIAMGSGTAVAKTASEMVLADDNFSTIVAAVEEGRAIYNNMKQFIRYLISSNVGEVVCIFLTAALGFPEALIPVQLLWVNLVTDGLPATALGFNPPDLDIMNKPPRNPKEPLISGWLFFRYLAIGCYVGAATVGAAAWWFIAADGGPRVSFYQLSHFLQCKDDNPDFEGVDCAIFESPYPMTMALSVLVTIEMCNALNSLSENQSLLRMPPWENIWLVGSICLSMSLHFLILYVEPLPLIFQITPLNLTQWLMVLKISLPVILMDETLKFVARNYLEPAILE
Procedure: A. Sarcoplasmic Reticulum Ca^2+-ATPase Assay
SR membrane (75 μg/ml): 24 μl
Test substance: appropriate volumes to give a dose-effect concentration
Incubation buffer: up to 240 μl
A portion at each concentration (54 μl) was aliquoted into 4 designated wells of the microplate (two of four wells were controls). Each well was mixed with ATP solution (20 mM, 6 μl), except the controls, using an 8 channel pipette. The controls were assayed in the absence of ATP or calcium.
The plate was incubated with the lid on, for 30 min at 37° C., colour reagent (160 μl) was then added and mixed with citrate solution (34%, 30 μl). The plate was developed at room temperature for 30 min then absorbance at 655 nm was read from the microplate reader. The Ca^2+-ATPase activity was quantitated, from a Pi standard curve, as concentration of liberated inorganic phosphate.
Stock solutions (10 mM) of test substance were prepared in DMSO, then series dilutions were made either in DMSO or in 1M HEPES to produce the dose-response concentrations. The maximum concentration of DMSO in the final assay solution was 2.5%.
Each concentration of test substance was assayed in duplicate in the presence and absence of ATP or calcium. Phosphate standards are run on each plate as follows:
Effect of gingerols and their derivatives on the Ca^2+-ATPase of dog cardiac SR.

[3] = system: brine shrimp (Artemia salina Leach); assay: Brine shrimp assay; type: in vivo
Text: Toxicity—Brine Shrimp Assay
The brine shrimp assay procedure determines LC50 values of active compounds. Activities of a broad range of known active compounds are manifested as toxicity to brine shrimp (Artemia salina Leach). There are many applications of the assay including analysis of toxic substances, anaesthetics, morphine-like substances and cocarcinogenicity of phorbol esters.
DMSO (dimethyl sulfoxide) was the solvent of choice because of its good solubilising properties and also because the substances used in the ATPase inhibition assays were already prepared with DMSO.
The method for testing solvent toxicity used was basically that reported by J L McLaughlin in Methods of Plant Biochemistry (1991), vol. 6 (K Hostettman, ed.), Academic Press, London, 1-32. DMSO solutions of the substances to be tested were added directly to the vials containing the brine shrimp. As the concentration of DMSO is that we wished to use was higher than the recommended 1% v/v testing of the toxicity of the DMSO was therefore necessary. The concentrations of DMSO tested on the shrimp, along with the results from the assay which was done in duplicate are listed below.
Brine shrimp toxicity was assayed, except for some minor modifications, according to the method of McLaughlin et al as reported in Brine Shrimp: A convenient bioassay for active plant constituents, B N Meyer, N R Ferrigni, J E Putnam, L B Jacobsen, D E Nichols and J L McLaughlin in Planta Medica (1982), 45, 31-34 and Crown gall tumours on potato discs and brine shrimp lethality: Two simple bioassays for higher plant screening and fractionation. J L McLaughlin. Methods of Plant Biochemistry (1991), vol. 6 (K Hostettman, ed.), Academic Press, London, 1-32. Ten shrimp were transferred to each of the vials and the volume adjusted to 4.9 mL. Each dose was performed in triplicate, including the control. In quick succession, the appropriate volume of additional DMSO for each dose, required to achieve a final concentration of 2%, was added before the appropriate volume of test solution. The vials were gently mixed and the time noted. After 24 hours, the number of survivors were counted and % mortality was determined. The test compounds were assayed at concentrations of 100 μM, 25 μM, 5 μM, 1 μM and 0.2 μM (and where appropriate concentrations of 0.04 μM and 0.008 μM).
The brine shrimp were able to survive without food in the vials over the 24 hour period and were therefore not fed.
The dose-response curves were constructed using the Sigmaplot computer program and the LC50 value was calculated from the intersection point of the curve and the 50% mortality line. The LC50 values were expressed in both μM and μg/mL.
For substances with low toxicity, the greater sign “>” indicated the highest concentration at which the assay was carried out as precipitation of the substances occurred above that concentration.

cardiac Purkinje fibres = assay: Cardiac electrophysiology on Purkinje fibres; parameters: species or system dog; details: up to 10 μM
Procedure: Cardiac Electrophysiological Activities of Gingerol and its Analogue
The basic cardiac electrophysiological properties were assessed using cardiac Purkinje fibres obtained from adult mongrel dogs.
Electrophysiology was carried out on dog heart purkinje fibre to test for potential arrhythmia. […] At high concentration (50 μM), however, [8]-gingerol reduced approximate 80% and 50% of action potential duration at 50% and 90% repolarisations respectively. Whereas the analogue reduced 75% and 30% respectively.

Structure (SMILES): CCCCCCCCCC(O)CCc1ccc(O)c(OC)c1 (single isomer, unassigned) [enantiomer-1, 1-(4-hydroxy-3-methoxyphenyl)dodecan-3-ol]
- EC50 (rat mesenteric artery; Rattus norvegicus, arteries 200-300 μm, precontracted with endothelin, read-out: EC50, relaxation of small arteries from rat mesentery): 500 nM

Structure (SMILES): CCCCCCCC(O)CCCCc1ccc(O)c(OC)c1 (centres unmarked) [1-(4-hydroxy-3-methoxyphenyl)dodecan-5-ol]
- HEART RATE (chronotropic activity), result in words (guinea pig atria; assayed to a maximum of 50 μM): ↑weakly
- Peak [Ca^2+]i (Average ± SD) [1]: 0 nM

Structure (SMILES): CCCCCCCC(=O)CCCCc1ccc(O)c(OC)c1 [1-(4-hydroxy-3-methoxyphenyl)dodecan-5-one]
- SR Ca^2+-ATPase activity ([2]; 5 μM): 113
- SR Ca^2+-ATPase activity ([2]; 10 μM): 136
- SR Ca^2+-ATPase activity ([2]; 25 μM): 158
- SR Ca^2+-ATPase activity ([2]; 50 μM): 126
- SR Ca^2+-ATPase activity ([2]; 100 μM): 87
- SR Ca^2+-ATPase activity ([2]; 200 μM): 18

Structure (SMILES): CCCCCCCCCC(O)C(=O)c1ccc(O)c(OC)c1 (centres unmarked) [2-hydroxy-1-(4-hydroxy-3-methoxyphenyl)undecan-1-one]
- melting point: 78 to 80 °C

Structure (SMILES): CCCCCCCC(=O)CC(O)CCc1ccc(O)c(OC)c1 (centres unmarked) [3-hydroxy-1-(4-hydroxy-3-methoxyphenyl)dodecan-5-one]
- potency in relaxing rat mesenteric artery / vascular bed, in words (rat mesenteric artery): showed potency

Structure (SMILES): CCCCCCCCC(C)(O)CCc1ccc(O)c(OC)c1 (centres unmarked) [3-methyl-1-(4-hydroxy-3-methoxyphenyl)undecan-3-ol]
- Peak [Ca^2+]i (Average ± SD) [1]: 0 nM

Structure (SMILES): CCCCCCCC(O)CC(=O)CCc1ccc2c(c1)OCO2 (centres unmarked) [5-hydroxy-1-(3,4-methylenedioxyphenyl)dodecan-3-one]
- potency in relaxing rat mesenteric artery / vascular bed, in words (rat mesenteric artery): showed potency

Structure (SMILES): COc1cc(CNC(=O)CCCC/C=C/C(C)C)ccc1O [Capsaicin, reference compound]
- evoked [Ca^2+]i transients in Ca^2+-free medium or with ruthenium red ([1]; Ca^2+-free medium or ruthenium red (1 μM)): abolished or greatly diminished

Structure (SMILES): C[S+](C)[O-] [DMSO, dimethyl sulfoxide]
- % Deaths ([3]; 1 % v/v): 0%
- % Deaths ([3]; 2 % v/v): 0%
- % Deaths ([3]; 3 % v/v): 0%
- % Deaths ([3]; 4 % v/v): 0%
- % Deaths ([3]; 5 % v/v): 9%
- % Deaths ([3]; 7 % v/v): 12%
- % Deaths ([3]; 9 % v/v): 18%
- % Deaths ([3]; 11 % v/v): 57%
- % Deaths ([3]; 13 % v/v): 96%
- % Deaths ([3]; 15 % v/v): 100%
- % Deaths ([3]; 20 % v/v): 100%
- % Deaths ([3]; 25 % v/v): 100%

Structure (SMILES): CCCCCCCC(O)CC(=O)C=Cc1ccc(O)c(OC)c1 (centres unmarked) [[8]-dehydrogingerol, 5-hydroxy-1-(4-hydroxy-3-methoxyphenyl)dodecan-1-ene-3-one, reference compound]
- time for tension to reach maximum after addition of a dose (guinea pig atria): a few mins

Structure (SMILES): CCCCCCCC(O)CC(=O)CCc1ccc(O)c(OC)c1 (centres unmarked) [[8]-gingerol, 5-hydroxy-1-(4-hydroxy-3-methoxyphenyl)dodecan-3-one, reference compound]
- time to increased cardiac contractility after addition of the drug (guinea pig atria): 15 s
- effect on rate of depolarization, amplitude and duration of action potential (50% and 90%) (cardiac Purkinje fibres): insignificant effect

Structure (SMILES): CCCCCCCCCC(=O)CCc1ccc(O)c(OC)c1 [[8]-paradol, 1-(4-hydroxy-3-methoxyphenyl)dodecan-3-one, reference compound]
- potency in relaxing rat mesenteric artery / vascular bed, in words (rat mesenteric artery): showed potency
- Peak [Ca^2+]i (Average ± SD) [1]: 200 nM

Structure (SMILES): C[C@H]1O[C@@H](O[C@H]2[C@@H](O)C[C@H](O[C@H]3[C@@H](O)C[C@H](O[C@H]4CC[C@@]5(C)[C@H](CC[C@@H]6[C@@H]5C[C@@H](O)[C@]5(C)[C@@H](C7=CC(=O)OC7)CC[C@]65O)C4)O[C@@H]3C)O[C@@H]2C)C[C@H](O)[C@@H]1O [digoxin, reference compound]
- time for tension to reach maximum after addition of a dose (guinea pig atria): a few mins
